# Test results published in ChEMBL document CHEMBL1201862, “PubChem BioAssay data set” (2004).
# Active and inactive are the calls of the source.
# Experiments:
# [1] = target: Dual specificity protein phosphatase 3 (Homo sapiens, UniProt P51452); assay: inhibition constants for human DUSP3 – biochemical, colorimetric, SAR follow-up (AID 2004)
# [2] = Luminescence Cell-Based Dose Response to Identify Activators of Luciferase Translation or Activity in H4-C Neuroglioblastoma Cells. [Related pubchem assays: 1829 (Project Summary), 1814 (Primary HTS)]; assay type: functional
# [3] = Luminescence Cell-Based Dose Response HTS to Identify Activators of Luciferase Translation or Activity in H4 […] Cells. [Related pubchem assays: 1829 (Project Summary), 1814 (Primary HTS)]; assay type: functional
# [4] = Luminescence Cell-Based Dose Response to Identify Activators of 5'UTR Stem-Loop Driven Prion Protein mRNA Translation in H4-C Neuroglioblastoma Cells. [Related pubchem assays: 1829 (Project Summary), 1814 (Primary HTS)]; assay type: functional
# [5] = target: NACHT, LRR and PYD domains-containing protein 3 (Homo sapiens, UniProt Q96P20); assay: NALP3 inhibitors in yeast, dose response, luminescent (AID 488799); assay type: functional
# [6] = Luminescence Cell-Based Dose Confirmation to Identify Activators of 5'UTR Stem-Loop Driven Alpha-Synuclein mRNA Translation in H4 Neuroglioblastoma Cells. [Related pubchem assays: 1829 (Project Summary), 1814 (Primary HTS)]; assay type: functional
# [7] = system: H4; assay: Luminescence Cell-Based Dose Response HTS to Identify Activators of 5'UTR Stem-Loop Driven Prion Protein mRNA Translation in H4 Neuroglioblastoma Cells. [Related pubchem assays: 1829 (Project Summary), 1814 (Primary HTS)]; assay type: functional; settings: Homo sapiens
# [8] = target: Melanocortin receptor 4 (Homo sapiens, UniProt P32245); assay: inhibitors of MC4R cAMP signaling – cell-based, TR-FRET, biased antagonists, dose response (AID 602298); assay type: functional;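 note: antagonist potency against agonist-stimulated cAMP production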
# [9] = target: T1, High affinity choline transporter 1 (Homo sapiens, UniProt Q9GZV3); assay: human choline transporter blockers, potency – cell-based, 5-point CRC, membrane potential dye, dose response (AID 504840); assay type: functional
# T1 sequence (Q9GZV3 whole entry): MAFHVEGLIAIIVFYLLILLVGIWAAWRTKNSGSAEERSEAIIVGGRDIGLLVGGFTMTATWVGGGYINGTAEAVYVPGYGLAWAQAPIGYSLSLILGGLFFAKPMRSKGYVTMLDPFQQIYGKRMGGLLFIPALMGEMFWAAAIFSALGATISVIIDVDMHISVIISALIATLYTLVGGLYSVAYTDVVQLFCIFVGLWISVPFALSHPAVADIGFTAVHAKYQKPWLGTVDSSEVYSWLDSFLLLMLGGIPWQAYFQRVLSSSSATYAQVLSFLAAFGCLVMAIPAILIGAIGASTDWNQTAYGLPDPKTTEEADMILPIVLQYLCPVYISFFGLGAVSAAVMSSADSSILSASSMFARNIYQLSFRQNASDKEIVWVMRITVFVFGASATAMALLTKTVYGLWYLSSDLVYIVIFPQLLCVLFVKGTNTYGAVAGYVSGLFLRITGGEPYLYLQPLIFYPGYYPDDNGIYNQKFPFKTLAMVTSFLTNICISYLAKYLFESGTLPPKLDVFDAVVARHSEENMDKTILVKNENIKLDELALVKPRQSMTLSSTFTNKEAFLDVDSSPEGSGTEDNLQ
# [10] = target: X-box-binding protein 1 (Homo sapiens, UniProt P17861); assay type: functional, Cricetulus griseus;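 note: confirmatory dose-response counter-screen serving a CHOP assay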
# [11] = cAMP pathway inhibition in counterscreen cell line – TR-FRET cAMP detection, counter-screen for MC4R biased antagonist project, dose response (AID 602305); assay type: functional, cell-based;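 note: U2OS cells stimulated with forskolin near its EC80 as the cAMP inducer; potency is for inhibition of forskolin-stimulated cAMP signaling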
# [12] = Luminescence Cell-Based Dose Confirmation HTS to Identify Activators of 5'UTR Stem-Loop Driven Alpha-Synuclein mRNA Translation in H4 Neuroglioblastoma Cells. [Related pubchem assays: 1829 (Project Summary), 1814 (Primary HTS)]; assay type: functional
# [13] = Luminescence Cell-Based Dose Response HTS to Identify Activators of Luciferase Translation or Activity in H4-C Neuroglioblastoma Cells. [Related pubchem assays: 1829 (Project Summary), 1814 (Primary HTS)]; assay type: functional
# [14] = Luminescence Cell-Based Dose Response HTS to Identify Activators of 5'UTR Stem-Loop Driven Prion Protein mRNA Translation in H4-C Neuroglioblastoma Cells. [Related pubchem assays: 1829 (Project Summary), 1814 (Primary HTS)]; assay type: functional
# [15] = Luminescence Cell-Based Dose Retest to Confirm Activators of 5'UTR Stem-Loop Driven Alpha-Synuclein mRNA Translation in H4 Neuroglioblastoma Cells. [Related pubchem assays (depositor defined):AID1813, AID1829]; assay type: functional
# [16] = target: CAAX prenyl protease 2 (Homo sapiens, UniProt Q9Y256); assay: inhibition of Ras-converting CAAX protease Rce1 – biochemical, yeast membranes, quenched-peptide fluorescence, cherry-pick, dose response (AID 588849)
# [17] = target: Trypsin (Sus scrofa, UniProt P00761); assay: trypsin protease activity blockade – biochemical, quenched peptide fluorescence, cherry-pick, selectivity assay for Rce1 protease inhibitor project, dose response (AID 488789)
# [18] = Cytotoxicity screening for potential Inhibitors of Bacterial Capsule Biogenesis. [Related pubchem assays (depositor defined):AID488970]; assay type: functional
# [19] = target: T2, Short transient receptor potential channel 4 (Mus musculus, UniProt Q9QUQ5); assay: block of DAMGO-driven TRPC4 calcium entry – cell-based, HEK293 TRPC4/mu-opioid, Fluo-4 calcium, dose response (AID 434942); assay type: functional;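 note: potency of inhibitors blocking the TRPC4 calcium response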
# T2 sequence (Q9QUQ5 whole entry): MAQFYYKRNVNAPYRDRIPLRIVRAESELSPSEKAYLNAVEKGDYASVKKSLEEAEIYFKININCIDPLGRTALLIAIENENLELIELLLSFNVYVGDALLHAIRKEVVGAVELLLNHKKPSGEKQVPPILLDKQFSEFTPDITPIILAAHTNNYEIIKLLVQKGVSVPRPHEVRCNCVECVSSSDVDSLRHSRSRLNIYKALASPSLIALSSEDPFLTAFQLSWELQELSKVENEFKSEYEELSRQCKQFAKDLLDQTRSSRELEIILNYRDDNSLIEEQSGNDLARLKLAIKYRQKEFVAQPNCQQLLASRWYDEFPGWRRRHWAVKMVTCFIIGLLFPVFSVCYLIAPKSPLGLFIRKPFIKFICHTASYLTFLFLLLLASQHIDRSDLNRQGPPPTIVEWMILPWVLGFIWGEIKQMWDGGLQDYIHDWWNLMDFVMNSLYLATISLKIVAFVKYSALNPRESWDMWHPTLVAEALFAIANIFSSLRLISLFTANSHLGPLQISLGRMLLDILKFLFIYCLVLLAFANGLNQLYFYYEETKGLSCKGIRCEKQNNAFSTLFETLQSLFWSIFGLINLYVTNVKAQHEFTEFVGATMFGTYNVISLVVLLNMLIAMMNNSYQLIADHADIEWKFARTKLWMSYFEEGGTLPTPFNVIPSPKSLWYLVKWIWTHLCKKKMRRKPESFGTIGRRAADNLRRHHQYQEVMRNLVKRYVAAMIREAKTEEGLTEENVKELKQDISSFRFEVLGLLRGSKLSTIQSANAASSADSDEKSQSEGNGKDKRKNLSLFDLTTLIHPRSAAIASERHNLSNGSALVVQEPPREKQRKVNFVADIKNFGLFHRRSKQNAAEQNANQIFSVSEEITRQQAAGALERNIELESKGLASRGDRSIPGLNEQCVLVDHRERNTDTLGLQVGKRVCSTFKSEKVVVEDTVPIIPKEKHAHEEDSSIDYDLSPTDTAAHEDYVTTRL
# X-box-binding protein 1, sequence (P17861 whole entry): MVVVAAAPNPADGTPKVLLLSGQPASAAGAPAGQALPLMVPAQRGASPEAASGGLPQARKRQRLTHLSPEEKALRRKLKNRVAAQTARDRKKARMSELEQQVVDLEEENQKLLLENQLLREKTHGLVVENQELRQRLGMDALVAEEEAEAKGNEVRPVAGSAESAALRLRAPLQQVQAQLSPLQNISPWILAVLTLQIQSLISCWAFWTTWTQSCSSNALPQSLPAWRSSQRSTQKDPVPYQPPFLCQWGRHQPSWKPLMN
# Trypsin, sequence (P00761 whole entry): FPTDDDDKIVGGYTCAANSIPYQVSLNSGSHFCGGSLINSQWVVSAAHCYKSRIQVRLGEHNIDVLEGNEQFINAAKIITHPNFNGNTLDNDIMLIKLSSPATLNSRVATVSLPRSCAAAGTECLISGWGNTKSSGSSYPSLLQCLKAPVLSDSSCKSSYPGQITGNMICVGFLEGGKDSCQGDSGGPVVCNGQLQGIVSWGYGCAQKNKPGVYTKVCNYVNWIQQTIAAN
# NACHT, LRR and PYD domains-containing protein 3, sequence (Q96P20 whole entry, the tested form may be a part): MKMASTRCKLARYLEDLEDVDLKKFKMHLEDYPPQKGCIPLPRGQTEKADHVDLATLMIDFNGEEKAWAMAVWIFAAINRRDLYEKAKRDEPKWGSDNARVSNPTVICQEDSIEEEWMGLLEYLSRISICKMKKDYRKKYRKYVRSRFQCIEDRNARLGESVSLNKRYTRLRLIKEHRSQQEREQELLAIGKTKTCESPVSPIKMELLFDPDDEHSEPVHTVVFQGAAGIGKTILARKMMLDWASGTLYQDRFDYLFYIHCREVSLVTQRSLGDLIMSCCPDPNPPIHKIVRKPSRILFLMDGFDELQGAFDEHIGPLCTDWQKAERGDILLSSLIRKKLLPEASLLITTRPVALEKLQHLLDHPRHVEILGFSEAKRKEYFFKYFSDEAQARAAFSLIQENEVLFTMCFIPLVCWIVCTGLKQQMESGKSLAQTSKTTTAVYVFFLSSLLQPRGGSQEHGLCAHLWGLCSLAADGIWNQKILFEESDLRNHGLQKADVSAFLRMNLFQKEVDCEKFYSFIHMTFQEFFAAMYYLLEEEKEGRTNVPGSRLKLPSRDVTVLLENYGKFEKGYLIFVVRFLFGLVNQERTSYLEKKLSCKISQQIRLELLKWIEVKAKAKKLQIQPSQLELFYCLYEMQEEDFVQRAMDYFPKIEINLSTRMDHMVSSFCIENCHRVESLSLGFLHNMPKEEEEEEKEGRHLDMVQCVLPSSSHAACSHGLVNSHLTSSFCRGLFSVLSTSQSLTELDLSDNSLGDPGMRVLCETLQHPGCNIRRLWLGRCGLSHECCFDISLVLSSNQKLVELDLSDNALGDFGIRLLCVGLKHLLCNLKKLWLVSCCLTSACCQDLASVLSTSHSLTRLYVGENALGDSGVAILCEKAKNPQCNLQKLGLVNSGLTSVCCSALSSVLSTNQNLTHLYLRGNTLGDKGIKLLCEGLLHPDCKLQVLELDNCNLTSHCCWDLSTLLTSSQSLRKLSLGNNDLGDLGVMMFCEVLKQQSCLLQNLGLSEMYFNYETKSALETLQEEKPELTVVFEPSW
# Dual specificity protein phosphatase 3, sequence (P51452 whole entry): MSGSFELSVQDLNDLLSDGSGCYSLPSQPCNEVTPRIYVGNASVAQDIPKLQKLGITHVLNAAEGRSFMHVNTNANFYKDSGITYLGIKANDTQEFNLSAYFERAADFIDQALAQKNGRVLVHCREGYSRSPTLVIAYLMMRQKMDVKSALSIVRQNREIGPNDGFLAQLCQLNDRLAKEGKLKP
# Melanocortin receptor 4, sequence (P32245 whole entry): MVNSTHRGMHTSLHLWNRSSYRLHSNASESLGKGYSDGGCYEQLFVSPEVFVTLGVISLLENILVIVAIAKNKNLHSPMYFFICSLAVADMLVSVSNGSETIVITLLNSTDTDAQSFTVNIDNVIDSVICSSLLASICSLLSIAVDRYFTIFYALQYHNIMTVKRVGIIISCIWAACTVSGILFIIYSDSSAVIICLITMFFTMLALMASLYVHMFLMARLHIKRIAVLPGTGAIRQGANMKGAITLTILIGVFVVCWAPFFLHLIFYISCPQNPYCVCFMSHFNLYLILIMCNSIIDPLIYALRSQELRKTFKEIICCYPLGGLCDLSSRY
# CAAX prenyl protease 2, sequence (Q9Y256 whole entry): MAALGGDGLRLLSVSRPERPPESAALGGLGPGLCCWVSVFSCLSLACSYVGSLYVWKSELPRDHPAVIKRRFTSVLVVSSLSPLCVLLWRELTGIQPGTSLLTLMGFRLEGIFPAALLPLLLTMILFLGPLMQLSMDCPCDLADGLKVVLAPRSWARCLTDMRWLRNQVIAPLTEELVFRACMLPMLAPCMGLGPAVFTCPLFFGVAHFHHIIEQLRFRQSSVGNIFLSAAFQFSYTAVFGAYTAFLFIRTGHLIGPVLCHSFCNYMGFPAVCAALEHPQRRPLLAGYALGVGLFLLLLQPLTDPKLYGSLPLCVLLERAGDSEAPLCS
structure (smiles),measurement,setting,value
O=C1NC(=S)/C(=C\c2ccc(-c3ccc([N+](=O)[O-])cc3)o2)S1,Ki,[1],1.86 µM (active)
Nc1ccc(Oc2cc(N)cc(Oc3ccccc3)c2)cc1,EC50,[2],> 12 µM (not active)
same,EC50,[3],< 0.1 µM (active)
same,EC50,[4],2.5 µM (active)
same,IC50,[5],4.74 µM (active)
same,EC50,[6],1.22 µM (active)
same,EC50,[7],20.4 µM (active)
COc1cccc(C(=O)C(C#N)=C(SC)SC)c1,IC50,[8],> 64.6 µM (inactive)
same,IC50,[9],11.2 µM (active)
same,Absolute IC50 (XBP1),[10],10 µM
same,IC50,[11],> 64.6 µM (inactive)
COc1cccc(Nc2nnc(SCc3nc4ccccc4s3)s2)c1,EC50,[12],27.4 µM (active)
same,EC50,[3],46.8 µM (active)
same,EC50,[13],2.15 µM (active)
same,EC50,[14],4.9 µM (active)
same,EC50,[15],1.31 µM (active)
Cc1cc(NC(=O)COC(=O)c2nccnc2N)n(-c2ccccc2)n1,AC50,[16],1.84 µM (active)
same,AC50,[17],25.9 µM (active)
CCOc1ccc(-c2cc(NC(=O)c3c(F)cccc3F)c(C(=O)O)s2)cc1,CC50,[18],66.7 µM (active)
same,EC50,[19],2.99 µM (active)
